Test results: patent US20240239752A1, “BICYCLIC HETEROAROMATIC INHIBITORS OF KLK5” (BioCryst Pharmaceuticals, Inc., priority 2021, published 2024)

Molecular target: T1, recombinant human KLK5 (Homo sapiens, UniProt Q9Y337)
T1 construct: purchased Novoprotein or R&D Systems C415 or 1108-SE
T1 sequence (Q9Y337 23-293): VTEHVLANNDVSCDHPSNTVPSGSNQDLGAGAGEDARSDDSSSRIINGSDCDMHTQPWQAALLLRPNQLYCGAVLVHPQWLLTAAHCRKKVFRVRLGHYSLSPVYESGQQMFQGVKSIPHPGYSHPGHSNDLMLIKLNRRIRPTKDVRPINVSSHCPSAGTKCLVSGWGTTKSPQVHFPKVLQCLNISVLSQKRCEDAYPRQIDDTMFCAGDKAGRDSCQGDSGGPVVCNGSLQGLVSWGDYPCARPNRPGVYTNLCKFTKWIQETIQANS
Test: Kallikrein (KLK) 5 enzymatic assay (Boc-VPR-AMC fluorogenic substrate)
Format: biochemical
Conditions: recombinant human KLK5 0.1 μg/well, Boc-VPR-AMC 100 μM, pH 7.5, room temperature, 1% DMSO; tested a minimum of three times
How it was run: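 Recombinant human KLK5 (0.1 μg/well) was preincubated with compound at room temperature in 0.1 M NaH2PO4, pH 7.5, 1% DMSO, then started with 100 μM Boc-VPR-AMC. The rate was followed at 380/460 nm, and IC50 came from percent inhibition relative to enzyme alone, with at least three runs.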

Row | Compound | IC50 [µM]
1 | Nc1nccc2c(-c3ccc4nn(C5CCOC5)c(COc5ccccc5CC(=O)O)c4c3)cccc12 (stereo not shown) [Compound 8g, 2-(2-((5-(1-aminoisoquinolin-5-yl)-2-(tetrahydrofuran-3-yl)-2H-indazol-3-yl)methoxy)phenyl)acetic acid] | < 1
2 | CC(C)n1nc(COc2ccccc2CC(=O)O)c2cc(-c3cccc4c(N)nn(C)c34)ccc21 [Compound 54c, 2-(2-((3′-amino-1-isopropyl-1′-methyl-1H, 1′H-[5,7′-biindazol]-3-yl)methoxy)phenyl)acetic acid] | > 10
3 | Nc1nccc2ccc(-c3ccc4c(c3)[C@H](Oc3ccccc3CC(=O)O)CC4)cc12 [Compound 215d, (R)-2-(2-((6-(1-aminoisoquinolin-7-yl)-2,3-dihydro-1H-inden-1-yl)oxy)phenyl)acetic acid] | < 1
4 | Nc1nccc2c(-c3ccc4c(c3)[C@@H](Oc3ccccc3CC(=O)O)CC4)cccc12 [Compound 222b, (S)-2-(2-((6-(1-aminoisoquinolin-5-yl)-2,3-dihydro-1H-inden-1-yl)oxy)phenyl)acetic acid] | 1 to 10
5 | Nc1nccc2ccc(-c3ccc4nn(C5CCC5)c(COc5cc(C(F)(F)F)ccc5CC(=O)O)c4c3)cc12 [Compound 151d, 2-(2-((5-(1-aminoisoquinolin-7-yl)-2-cyclobutyl-2H-indazol-3-yl)methoxy)-4-(trifluoromethyl)phenyl)acetic acid] | > 10
6 | CC(C)Cn1nc(COc2ccccc2CC(=O)O)c2cc(-c3ccc4ccnc(N)c4c3)ccc21 [Compound 188e, 2-(2-((5-(1-aminoisoquinolin-7-yl)-1-isobutyl-1H-indazol-3-yl)methoxy)phenyl)acetic acid] | < 1
7 | CCCN1CCC2(CC1)C[C@@H](Oc1ccccc1CC(=O)O)c1cc(-c3ccc4ccnc(N)c4c3)ccc12 [Compound 416c, (R)-2-(2-((5-(1-aminoisoquinolin-7-yl)-1′-propyl-2,3-dihydrospiro[indene-1,4′-piperidin]-3-yl)oxy)phenyl)acetic acid] | < 1
8 | CCOC(=O)N1CC[C@H](n2nc(COc3cccc(C4CC4)c3CC(=O)O)c3cc(-c4cccc5c(N)nccc45)ccc32)C1 [Compound 357b, (S)-2-(2-((5-(1-aminoisoquinolin-5-yl)-1-(1-(ethoxycarbonyl)pyrrolidin-3-yl)-1H-indazol-3-yl)methoxy)-6-cyclopropylphenyl)acetic acid] | < 1
9 | CC(C)n1nc(COc2ccccc2CC(=O)O)c2cc(-c3ccnc4c(N)cccc34)ccc21 [Compound 53c, 2-(2-((5-(8-aminoquinolin-4-yl)-1-isopropyl-1H-indazol-3-yl)methoxy)phenyl)acetic acid] | > 10
10 | CC(C)CCN1CC(n2nc(COc3ccccc3CC(=O)O)c3cc(-c4cccc5c(N)nccc45)ccc32)C1 [Compound 144c, 2-(2-((5-(1-aminoisoquinolin-5-yl)-1-(1-isopentylazetidin-3-yl)-1H-indazol-3-yl)methoxy)phenyl)acetic acid] | < 1
11 | Nc1nccc2ccc(-c3ccc4c(c3)c(COc3ccccc3CC(=O)O)nn4C3CCCOC3)cc12 (stereo not shown) [Compound 283g, 2-(2-((5-(1-aminoisoquinolin-7-yl)-1-(tetrahydro-2H-pyran-3-yl)-1H-indazol-3-yl)methoxy)phenyl)acetic acid] | < 1
12 | COC(=O)N1CCC2(CC1)C[C@H](Oc1ccccc1CC(=O)O)c1cc(-c3ccc4ccnc(N)c4c3)ccc12 [Compound 397b, (S)-2-(2-((5-(1-aminoisoquinolin-7-yl)-1′-(methoxycarbonyl)-2,3-dihydrospiro[indene-1,4′-piperidin]-3-yl)oxy)phenyl)acetic acid] | < 1
13 | CCOC(=O)N1CC[C@H](n2nc(COc3cccc(C)c3CC(=O)O)c3cc(-c4ccc5ccnc(N)c5c4)ccc32)C1 [Compound 343i, (S)-2-(2-((5-(1-aminoisoquinolin-7-yl)-1-(1-(ethoxycarbonyl)pyrrolidin-3-yl)-1H-indazol-3-yl)methoxy)-6-methylphenyl)acetic acid] | < 1
14 | CC1(C)Cc2ccc(-c3cccc4c(N)nccc34)cc2C1Oc1cc(F)ccc1CC(=O)O (stereo not shown) [Compound 438c, 2-(2-((6-(1-aminoisoquinolin-5-yl)-2,2-dimethyl-2,3-dihydro-1H-inden-1-yl)oxy)-4-fluorophenyl)acetic acid] | < 1
15 | COC(=O)N1CCC2(CC1)CC(Oc1cc(C)ccc1CC(=O)O)c1cc(-c3cccc4c(N)nccc34)ccc12 (stereo not shown) [Compound 413b, 2-(2-((5-(1-aminoisoquinolin-5-yl)-1′-(methoxycarbonyl)-2,3-dihydrospiro[indene-1,4′-piperidin]-3-yl)oxy)-4-methylphenyl)acetic acid] | < 1
16 | CC(C)(C)OC(=O)NC1CC(n2nc3ccc(-c4cccc5c(N)nccc45)cc3c2COc2ccccc2CC(=O)O)C1 (stereo not shown) [Compound 135f, 2-(2-((5-(1-aminoisoquinolin-5-yl)-2-(3-(tert-butoxycarbonylamino)cyclobutyl)-2H-indazol-3-yl)methoxy)phenyl)acetic acid] | < 1
17 | COc1ccc(CC(=O)O)c(O[C@@H]2CCc3ccc(-c4ccc5ccnc(N)c5c4)cc32)c1 [Compound 419c, (R)-2-(2-((6-(1-aminoisoquinolin-7-yl)-2,3-dihydro-1H-inden-1-yl)oxy)-4-methoxyphenyl)acetic acid] | < 1
18 | CC(C)n1nc(COc2ccccc2CC(=O)O)c2cc(-c3cccc4cnc(N)cc34)ccc21 [Compound 56c, 2-(2-((5-(3-aminoisoquinolin-5-yl)-1-isopropyl-1H-indazol-3-yl)methoxy)phenyl)acetic acid] | > 10
19 | Nc1nccc2c(-c3cc(F)c4c(c3)C(Oc3ccccc3CC(=O)O)CC4)cccc12 (stereo not shown) [Compound 208b, 2-(2-((6-(1-aminoisoquinolin-5-yl)-4-fluoro-2,3-dihydro-1H-inden-1-yl)oxy)phenyl)acetic acid] | < 1
20 | COc1ccc(-c2ccc3c(c2)c(COc2ccccc2CC(=O)O)nn3C(C)C)cc1C(=N)N [Compound 211e, 2-(2-((5-(3-carbamimidoyl-4-methoxyphenyl)-1-isopropyl-1H-indazol-3-yl)methoxy)phenyl)acetic acid] | 1 to 10

More lines, now with the values ahead:

Row | IC50 [µM] | Compound
21 | < 1 | Nc1nccc2ccc(-c3ccc4c(c3)C(COc3ccccc3CC(=O)O)=CC43CCCC3)cc12 [Compound 401b, 2-(2-((5′-(1-aminoisoquinolin-7-yl)spiro[cyclopentane-1,1′-inden]-3′-yl)methoxy)phenyl)acetic acid]
22 | < 1 | Nc1nccc2ccc(-c3ccc4c(c3)c(COc3ccccc3CC(=O)O)nn4C3CCNC3)cc12 (stereo not shown) [Compound 91a, 2-(2-((5-(1-aminoisoquinolin-7-yl)-1-(pyrrolidin-3-yl)-1H-indazol-3-yl)methoxy)phenyl)acetic acid]
23 | < 1 | COc1c(C(=N)N)cccc1-c1ccc2c(c1)c(COc1ccccc1CC(=O)O)nn2CC1CCC1 [Compound 255d, 2-(2-((5-(3-carbamimidoyl-2-methoxyphenyl)-1-(cyclobutylmethyl)-1H-indazol-3-yl)methoxy)phenyl)acetic acid]
24 | < 1 | Cc1cccc(OC2CC3(CCCCC3)c3ccc(-c4ccc5ccnc(N)c5c4)cc32)c1CC(=O)O (stereo not shown) [Compound 378b, 2-(2-((5′-(1-aminoisoquinolin-7-yl)-2′,3′-dihydrospiro[cyclohexane-1,1′-inden]-3′-yl)oxy)-6-methylphenyl)acetic acid]
25 | < 1 | CCOC(=O)N1CCC(n2nc(COc3ccccc3CC(=O)O)c3cc(-c4ccc5ccnc(N)c5c4)ccc32)C1 (stereo not shown) [Compound 310c, 2-(2-((5-(1-aminoisoquinolin-7-yl)-1-(1-(ethoxycarbonyl)pyrrolidin-3-yl)-1H-indazol-3-yl)methoxy)phenyl)acetic acid]
26 | < 1 | Nc1nccc2c(-c3ccc4c(c3)c(CCc3ccccc3CC(=O)O)cn4C3CCOC3)cccc12 (stereo not shown) [Compound 302b, 2-(2-(2-(5-(1-aminoisoquinolin-5-yl)-1-(tetrahydrofuran-3-yl)-1H-indol-3-yl)ethyl)phenyl)acetic acid]
27 | < 1 | CCOC(=O)N1CC[C@@H](n2nc(COc3cccc(C)c3CC(=O)O)c3cc(-c4cccc5c(N)nccc45)ccc32)C1 [Compound 341e, (R)-2-(2-((5-(1-aminoisoquinolin-5-yl)-1-(1-(ethoxycarbonyl)pyrrolidin-3-yl)-1H-indazol-3-yl)methoxy)-6-methylphenyl)acetic acid]
28 | < 1 | CC(C)n1nc(COc2ccccc2CC(=O)O)c2cc(-c3cccc(C(=N)N)c3)ccc21 [Compound 6b, 2-(2-((5-(3-carbamimidoylphenyl)-1-isopropyl-1H-indazol-3-yl)methoxy)phenyl)acetic acid]
29 | < 1 | Nc1nccc2ccc(-c3ccc4c(c3)c(COc3ccccc3CC(=O)O)nn4C3CCCC3)cc12 [Compound 42d, 2-(2-((5-(1-aminoisoquinolin-7-yl)-1-cyclopentyl-1H-indazol-3-yl)methoxy)phenyl)acetic acid]
30 | < 1 | N=C(N)c1cccc(-c2ccc3c(c2)c(COc2ccccc2CC(=O)O)nn3CC2CCC2)c1 [Compound 254c, 2-(2-((5-(3-carbamimidoylphenyl)-1-(cyclobutylmethyl)-1H-indazol-3-yl)methoxy)phenyl)acetic acid]
31 | > 10 | CC(C)n1nc(COc2ccccc2CC(=O)O)c2cc(-c3ccc4ccnc(O)c4c3)ccc21 [Compound 44d, 2-(2-((5-(1-hydroxyisoquinolin-7-yl)-1-isopropyl-1H-indazol-3-yl)methoxy)phenyl)acetic acid]
